The target in series [1] is T1, K-Ras(G12D)·GppNHp and Raf1-RBD (Homo sapiens, UniProt P01116, G12D).
T1 construct: pET-Duet plasmids encoding BirA biotin-protein ligase and His-Avi-TEV-tagged K-Ras proteins were constructed; made in house; host or cells: E. coli BL21(DE3)
Put plainly: TR-FRET Ras-Raf interaction assay, K-Ras(G12D). Format: biochemical. The conditions noted are these: KD2 Thr10 analogs compared to KD2. In general terms: Time-resolved FRET reads energy transfer from a long-lived donor to a nearby acceptor.

A short description of series [2]: Solubility in aqueous buffer. Type of series: physicochemical. The conditions noted are these: for solubility (in words): KD2 Thr10 mutants, compared with parent peptide KD2.
The test system of another series is SW1990 cells. Put plainly: Ras signaling (p-Akt, p-Erk) in SW1990 cells, Western blot. Format: cell-based. The note with it: SW1990, 10 μM, 24 h. The protocol: SW1990 cells were obtained from ATCC and maintained in DMEM (Gibco)+10% heat-inactivated FBS (Axenia Biologix) supplemented with penicillin and streptomycin (Gibco). When indicated, cells were treated with drugs at 60-80% confluency at a final DMSO concentration of 1%. At the end of treatment period, cells were placed on ice and washed once with PBS. The cells were scraped with a spatula, pelleted by centrifugation (500×g, 5 min) and lysed in RIPA buffer supplemented with protease and phosphatase inhibitors (cOmplete and phosSTOP, Roche) on ice for 10 min. Lysates were clarified by high-speed centrifugation. Concentrations of lysates were determined with protein BCA assay (Thermo Fisher) and adjusted to 2 mg/mL with additional RIPA buffer. Samples were mixed with 5×SDS Loading Dye and heated at 95° C. for 5 min.
Gel Electrophoresis and Western Blot
Unless otherwise noted, SDS-PAGE was run with Novex 4-12% Bis-Tris gel (Invitrogen) in MES running buffer (Invitrogen) at 200V for 40 min following the manufacturer's instructions. Protein bands were transferred onto 0.45-μm nitrocellulose membranes (Bio-Rad) using a wet-tank transfer apparatus (Bio-Rad Criterion Blotter) in 1×TOWBIN buffer with 10% methanol at 75V for 45 min. […] The membrane was washed three times with TBST (5 min each wash) and imaged on a Li-COR Odyssey fluorescence imager.

In brackets after ≈: the same amount, converted by molar mass. Entries after “also recorded” stand apart in the source; their conditions may differ.

T1 sequence (P01116 1-169 isoform P01116-2 G12D): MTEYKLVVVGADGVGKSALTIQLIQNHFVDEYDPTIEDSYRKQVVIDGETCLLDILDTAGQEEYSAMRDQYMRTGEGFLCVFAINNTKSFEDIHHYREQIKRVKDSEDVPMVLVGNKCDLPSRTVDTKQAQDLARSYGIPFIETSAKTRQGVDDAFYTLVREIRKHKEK

Regarding `CC1CCN(C[C@@H]2NC(=O)[C@H](CCCNC(=N)N)NC(=O)[C@H](Cc3ccccc3)NC(=O)[C@H](CC(N)=O)NC(=O)[C@H](CCCNC(=N)N)NC(=O)[C@H](Cc3ccccc3)NC(=O)[C@H](CC(N)=O)NC(=O)[C@H](C(C)C)NC(=O)[C@H](Cc3ccccc3)NC(=O)[C@@H](Cc3ccc(O)cc3)NC(=O)CSC[C@@H](C(=O)NCC(N)=O)NC(=O)[C@H](CCCNC(=N)N)NC(=O)[C@H](Cc3ccccc3)NC2=O)CC1` [Aza-X], the “potency relative to KD2, Ras·Raf interaction” value in series [1] is more than 10 fold.
In the case of `NC[C@H](N)C(=O)O` [Dap, 2,3-diaminoproprionic acid], in series [2], the “solubility (in words)” value is reported as “limited solubility”.
The same measure, in the same setting: in the case of `N[C@@H](Cc1c[nH]cn1)C(=O)O` [His, histidine] it was “limited solubility”.
`CC[C@H](C)[C@@H]1NC(=O)[C@H](Cc2ccccc2)NC(=O)[C@H](CCCCN)NC(=O)[C@H](CCC(=O)O)NC(=O)[C@H]([C@@H](C)O)NC(=O)[C@H](C(C)C)NC(=O)[C@H]([C@@H](C)CC)NC(=O)[C@H]([C@@H](C)CC)NC(=O)[C@@H](Cc2ccc(O)cc2)NC(=O)CSC[C@@H](C(=O)NCC(N)=O)NC(=O)[C@H](Cc2c[nH]cn2)NC(=O)[C@H](Cc2c[nH]cn2)NC(=O)[C@H](C(C)C)NC(=O)[C@H](Cc2c[nH]c3ccccc23)NC1=O` [KD1] had a solubility in series [2] (aqueous buffer) of approximately 50 µM (≈ 94.2 µg/mL). Further, the “Ras signaling (p-Akt or p-Erk levels)” value in the series on SW1990 cells is listed as “did not observe any change; also recorded: does not inhibit Ras signaling”.
On to `CC(C)C[C@@H]1NC(=O)[C@H](CCC(=O)O)NC(=O)[C@H](CC(C)C)NC(=O)[C@@H]2CCCN2C(=O)[C@H](CCCNC(=N)N)NC(=O)[C@H](Cc2ccc(O)cc2)NC(=O)[C@@H]2CCCN2C(=O)[C@H](Cc2ccc(O)cc2)NC(=O)[C@H](CC(N)=O)NC(=O)[C@@H](Cc2ccc(O)cc2)NC(=O)CSC[C@@H](C(=O)NCC(N)=O)NC(=O)[C@H](Cc2ccc(O)cc2)NC(=O)[C@H](Cc2c[nH]c3ccccc23)NC(=O)CNC1=O` [KD17], for which, in the series with SW1990 cells, the “Ras signaling (p-Akt or p-Erk levels)” value is “did not observe any change; also recorded: does not inhibit Ras signaling”.
On to `NCCCC[C@H](N)C(=O)O` [Lys, lysine], for which the “potency relative to KD2, Ras·Raf interaction” value in series [1] was “about 3 fold”. Moreover, in series [2], the “solubility (in words)” value is listed as “significantly lower”.

In general, solubility refers to the concentration that dissolves in the medium under given conditions.

The values above are taken from US20230242586A1, “RAS INHIBITORS AND USES THEREOF” (The Regents of the University of California, priority 2020, published 2023).
